Assay results from ChEMBL document CHEMBL1201862, “PubChem BioAssay data set” (2004).
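Five concentrations, 48 hours, 96-well plates. GI50 is the concentration that inhibits growth by half.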 Calls of active or inactive are those of the source. No stated cut-off is given here; in the data, active = GI50 up to about 1.1 µM and inactive = higher.

Key:
Experiment in all cases: DTP human tumour cell line panel, 48 h
A498 = test system: A498
ACHN = test system: ACHN
DLD-1 = test system: DLD-1
DMS-273 = test system: DMS-273
HOP-92 = test system: HOP-92
NCI-H460 = test system: NCI-H460
NCI-H522 = test system: NCI-H522
OVCAR-3 = test system: OVCAR-3
OVCAR-8 = test system: OVCAR-8
RXF 393 = test system: RXF 393
SF-268 = test system: SF-268
SF-295 = test system: SF-295
SK-OV-3 = test system: SK-OV-3
TK-10 = test system: TK-10
U-251 = test system: U-251
DU-145 = test system: DU-145
SK-MEL-28 = test system: SK-MEL-28
BT-549 = test system: BT-549
MDA-MB-435 = test system: MDA-MB-435
T47D = test system: T47D

| Structure (SMILES) | GI50 (A498) | GI50 (ACHN) | GI50 (DLD-1) | GI50 (DMS-273) | GI50 (HOP-92) | GI50 (NCI-H460) | GI50 (NCI-H522) | GI50 (OVCAR-3) | GI50 (OVCAR-8) | GI50 (RXF 393) | GI50 (SF-268) | GI50 (SF-295) | GI50 (SK-OV-3) | GI50 (TK-10) | GI50 (U-251) | GI50 (DU-145) | GI50 (SK-MEL-28) | GI50 (BT-549) | GI50 (MDA-MB-435) | GI50 (T47D) |
| --- | --- | --- | --- | --- | --- | --- | --- | --- | --- | --- | --- | --- | --- | --- | --- | --- | --- | --- | --- | --- |
| O=C(Nc1cc(Cl)c(Cl)cc1Cl)C(=O)C(C(=O)c1ccc(Cl)c(Cl)c1)C1OC(=O)c2ccccc21 (configuration not stated) | 17.2 µM (inactive) | 14.5 µM (inactive) | 8.47 µM (inactive) | 16.9 µM (inactive) | 11 µM (inactive) | 3.07 µM (inactive) | 10.9 µM (inactive) | 13.7 µM (inactive) | 10.7 µM (inactive) | 8.3 µM (inactive) | 15.7 µM (inactive) | 11.9 µM (inactive) | 26.1 µM (inactive) | 26.1 µM (inactive) | 15.3 µM (inactive) |  |  |  |  |  |
| O=C1C(=Cc2c(O)cc(O)cc2O)C(=O)c2ccccc21 | 45.1 µM (inactive) | > 40.8 µM (inactive) | > 40.6 µM (inactive) | > 100 µM (inactive) | > 38.5 µM (inactive) | > 45.5 µM (inactive) | > 46 µM (inactive) | > 40.6 µM (inactive) | > 41.7 µM (inactive) | 14.3 µM (inactive) | > 45.4 µM (inactive) | > 41.9 µM (inactive) | > 100 µM (inactive) | > 46.6 µM (inactive) | > 42.9 µM (inactive) | 19.1 µM (inactive) | > 45.8 µM (inactive) |  |  |  |
| N#C/C(=C1\OC(=N)C(c2ccccc2)C1=O)c1ccccc1 (configuration not stated) | > 100 µM (inactive) | 16.3 µM (inactive) | 18.3 µM (inactive) | 49.9 µM (inactive) | 33.8 µM (inactive) | > 100 µM (inactive) | 8.81 µM (inactive) | 28.1 µM (inactive) | 27.9 µM (inactive) | 17.9 µM (inactive) | 48.3 µM (inactive) | > 100 µM (inactive) | > 100 µM (inactive) | 29.7 µM (inactive) | > 100 µM (inactive) |  | 13.3 µM (inactive) |  |  |  |
| COC(=O)C1CCCC2(C1)OCCO2 (configuration not stated) | > 100 µM (inactive) | > 100 µM (inactive) | > 100 µM (inactive) | > 100 µM (inactive) | > 100 µM (inactive) | > 100 µM (inactive) | > 100 µM (inactive) | > 100 µM (inactive) | > 100 µM (inactive) | > 100 µM (inactive) | > 100 µM (inactive) | > 100 µM (inactive) | > 100 µM (inactive) | > 100 µM (inactive) | > 100 µM (inactive) |  | > 100 µM (inactive) |  |  |  |
| Nc1nc(Cl)cc(NCC(O)CO)n1 (configuration not stated) | > 100 µM (inactive) |  | > 100 µM (inactive) | > 100 µM (inactive) | > 100 µM (inactive) | > 100 µM (inactive) |  | > 100 µM (inactive) | > 100 µM (inactive) | > 100 µM (inactive) | > 100 µM (inactive) | > 100 µM (inactive) | > 100 µM (inactive) | > 100 µM (inactive) | > 100 µM (inactive) |  | > 100 µM (inactive) |  |  |  |
| O=C1C=CC(=O)c2ccc(=O)ccc21 | 16.9 µM (inactive) | 9.68 µM (inactive) | 4.34 µM (inactive) | 25.5 µM (inactive) | 1.89 µM (inactive) | 21.2 µM (inactive) | 2.09 µM (inactive) | 7.85 µM (inactive) | 17.5 µM (inactive) | 6.31 µM (inactive) | 17.1 µM (inactive) | 13.2 µM (inactive) | 24.1 µM (inactive) | 17.6 µM (inactive) | 16.4 µM (inactive) | 28.1 µM (inactive) | 21.4 µM (inactive) | 17.7 µM (inactive) | 21.5 µM (inactive) | 2.34 µM (inactive) |
| Cc1ccccc1/C=C/C(=O)c1ccccc1 | 16.4 µM (inactive) | 18.8 µM (inactive) | 22.4 µM (inactive) | 25.8 µM (inactive) | 20.5 µM (inactive) | 17.8 µM (inactive) | 21.1 µM (inactive) | 17.3 µM (inactive) | 25.2 µM (inactive) |  | 15.9 µM (inactive) |  | 27.4 µM (inactive) |  | 16.8 µM (inactive) |  | 18.7 µM (inactive) |  |  |  |
| O=C(CC1C(=O)Nc2ccccc2S1(=O)=O)Nc1ccc(Cl)cc1 (configuration not stated) | 25.8 µM (inactive) | 20.4 µM (inactive) | 33.5 µM (inactive) | 13.1 µM (inactive) | 16.9 µM (inactive) | 30.3 µM (inactive) | 16.3 µM (inactive) | 15.2 µM (inactive) | 26.4 µM (inactive) | 15.9 µM (inactive) | 14.4 µM (inactive) | 45.6 µM (inactive) |  | 20 µM (inactive) | 16 µM (inactive) |  | 20 µM (inactive) |  |  |  |
| CCOC(=O)C1([Se]c2ccccc2)CCCC1=O (configuration not stated) | > 100 µM (inactive) | 20.3 µM (inactive) | 16.6 µM (inactive) | 14.4 µM (inactive) | 25.5 µM (inactive) | 27.9 µM (inactive) | 3.6 µM (inactive) | 26.6 µM (inactive) | 16.8 µM (inactive) | 7.82 µM (inactive) | 11.7 µM (inactive) | 31.8 µM (inactive) | > 100 µM (inactive) | 77.6 µM (inactive) | 9.95 µM (inactive) |  | 18.9 µM (inactive) |  |  |  |
| COC1CC(O)C(OC(=O)c2ccccc2)C(C)O1 (configuration not stated) | > 100 µM (inactive) |  | > 10 µM (inactive) | > 100 µM (inactive) | > 100 µM (inactive) | > 100 µM (inactive) | > 100 µM (inactive) | > 100 µM (inactive) | > 100 µM (inactive) |  | > 100 µM (inactive) | > 100 µM (inactive) |  | > 100 µM (inactive) | > 100 µM (inactive) |  | > 100 µM (inactive) |  |  |  |
| CN1CCc2cc3c4cc2C1Cc1ccc(cc1)Oc1cc(ccc1O)CC1c2c(cc(O)c(c2O4)O3)CCN1C (configuration not stated) | > 10 µM (inactive) | 7.52 µM (inactive) | 3.3 µM (inactive) | 1.75 µM (inactive) | 2.52 µM (inactive) | 1.87 µM (inactive) | 2.79 µM (inactive) | 3.94 µM (inactive) | 2.86 µM (inactive) | 3.24 µM (inactive) | 2.16 µM (inactive) | 1.56 µM (inactive) | 3.1 µM (inactive) | 10.6 µM (inactive) | 1.69 µM (inactive) |  | 1.8 µM (inactive) |  |  |  |
| Cc1ccc(S(=O)(=O)OCC/C(=C\[Si](C)(C)C)c2ccccc2)cc1 | > 100 µM (inactive) | > 100 µM (inactive) | > 100 µM (inactive) | > 100 µM (inactive) | > 100 µM (inactive) | > 100 µM (inactive) | > 100 µM (inactive) | > 100 µM (inactive) | > 100 µM (inactive) | > 100 µM (inactive) | > 100 µM (inactive) | > 100 µM (inactive) | > 100 µM (inactive) | > 100 µM (inactive) | > 100 µM (inactive) |  | > 100 µM (inactive) |  |  |  |
| N[C@H](C(=O)O)[C@H]1ON=C(Cl)[C@@H]1O |  | 10.7 µM (inactive) | 1.09 µM (active) | 1.16 µM (inactive) | 27.4 µM (inactive) | 2.76 µM (inactive) | 0.942 µM (active) | 18.5 µM (inactive) | 2.95 µM (inactive) | 58.3 µM (inactive) | 1.5 µM (inactive) | 5.97 µM (inactive) | 14.3 µM (inactive) | > 28.5 µM (inactive) | 3.3 µM (inactive) | 27.4 µM (inactive) | 3.24 µM (inactive) | 3.97 µM (inactive) | 3.56 µM (inactive) | 33.6 µM (inactive) |
| O=C1CC(c2n[nH]c3ccccc23)C(=O)N1c1ccccc1 (configuration not stated) | > 100 µM (inactive) | > 100 µM (inactive) | > 100 µM (inactive) | > 100 µM (inactive) | > 78.2 µM (inactive) | > 100 µM (inactive) | > 100 µM (inactive) | > 100 µM (inactive) | > 100 µM (inactive) | > 100 µM (inactive) | > 100 µM (inactive) | > 100 µM (inactive) | > 100 µM (inactive) | > 100 µM (inactive) | > 100 µM (inactive) | > 100 µM (inactive) | > 100 µM (inactive) | > 100 µM (inactive) | > 100 µM (inactive) | > 100 µM (inactive) |
| C=C1C(=O)C23CC1CCC2C12CO[C@@H]4OCC(C)(CC[C@@H]1OC3=O)C42 (some centres not stated) | 19.4 µM (inactive) | 3.14 µM (inactive) | 3.52 µM (inactive) | 6.56 µM (inactive) | 2.64 µM (inactive) | 6.64 µM (inactive) | 1.01 µM (active) | 6.49 µM (inactive) | 2.02 µM (inactive) | 2.51 µM (inactive) | 6.32 µM (inactive) | 16.9 µM (inactive) | 23.3 µM (inactive) | 5.75 µM (inactive) | 14 µM (inactive) |  | 2.23 µM (inactive) |  |  |  |
| CCN(CC)CCCNC(=O)c1ccc([N+](=O)[O-])cc1O | > 100 µM (inactive) | > 100 µM (inactive) | > 100 µM (inactive) | > 100 µM (inactive) | > 100 µM (inactive) | > 100 µM (inactive) | > 100 µM (inactive) | > 100 µM (inactive) | > 100 µM (inactive) | > 100 µM (inactive) | > 100 µM (inactive) | > 100 µM (inactive) | > 100 µM (inactive) | > 100 µM (inactive) | > 100 µM (inactive) |  | > 100 µM (inactive) |  |  |  |
| O=C(N/N=C/c1cccc(F)c1)c1ccncc1 | > 100 µM (inactive) | > 100 µM (inactive) | > 100 µM (inactive) | > 100 µM (inactive) | > 100 µM (inactive) | > 100 µM (inactive) | > 10 µM (inactive) |  |  | > 100 µM (inactive) | > 100 µM (inactive) | > 100 µM (inactive) | > 100 µM (inactive) | > 100 µM (inactive) | > 100 µM (inactive) |  | > 100 µM (inactive) |  |  |  |
